Common to all, as to assay type: functional
Common to all, as to details: time 16-20 hrs

The test system of assay [1] is Staphylococcus epidermidis. Briefly: Antibacterial activity against Staphylococcus epidermidis ATCC 12228 assessed as reduction in microbial growth measured for 16 to 20 hrs by microdilution assay.
Assay [2] deals with Staphylococcus aureus. Description: Antibacterial activity against Staphylococcus aureus ATCC 25923 assessed as reduction in microbial growth measured for 16 to 20 hrs by microdilution assay. On the technique in general: In broth dilution the organism is exposed to a series of concentrations in liquid medium.
Assay [3] has as its system Staphylococcus aureus. Briefly: Antibacterial activity against Staphylococcus aureus ATCC 29213 assessed as reduction in microbial growth measured for 16 to 20 hrs by microdilution assay.
Assay [4] has as its system Staphylococcus aureus. Description: Antibacterial activity against Staphylococcus aureus ATCC 6538 assessed as reduction in microbial growth measured for 16 to 20 hrs by microdilution assay.
Assay [5] deals with Staphylococcus aureus. Briefly: Antibacterial activity against methicillin-resistant Staphylococcus aureus ATCC 33592 assessed as reduction in microbial growth measured for 16 to 20 hrs by microdilution assay.
Assay [6] deals with Staphylococcus epidermidis. Description: Antibacterial activity against Staphylococcus epidermidis ATCC 35984 assessed as reduction in microbial growth measured for 16 to 20 hrs by microdilution assay.
Assay [7] deals with Escherichia coli. Description: Antibacterial activity against Escherichia coli ATCC 25922 assessed as inhibition of bacterial growth measured for 16 to 20 hrs by microdilution assay.
Assay [8] deals with Klebsiella pneumoniae. Briefly: Antibacterial activity against Klebsiella pneumoniae ATCC 700603 assessed as inhibition of bacterial growth measured for 16 to 20 hrs by microdilution assay.
Assay [9] concerns Pseudomonas aeruginosa. Briefly: Antibacterial activity against Pseudomonas aeruginosa ATCC 10145 assessed as inhibition of bacterial growth measured for 16 to 20 hrs by microdilution assay.
Assay [10] deals with Staphylococcus epidermidis. Description: Antibacterial activity against Staphylococcus epidermidis ATCC 49134 assessed as reduction in microbial growth measured for 16 to 20 hrs by microdilution assay.
In assay [11] the test system is Staphylococcus aureus. Description: Antibacterial activity against methicillin-resistant Staphylococcus aureus ATCC 43300 assessed as reduction in microbial growth measured for 16 to 20 hrs by microdilution assay.

These results are taken from ChEMBL document CHEMBL5352456, “Isocyanides in med chem: A scaffold hopping approach for the identification of novel 4-isocyanophenylamides as potent antibacterial agents against methicillin-resistant Staphylococcusaureus” (Eur J Med Chem, 2023).

What is called MIC is the lowest concentration found to suppress growth. As for `[C-]#[N+]c1ccc(NC(=O)Cc2cccc(OC)c2)cc1`, the MIC is 2 µM in assay [1]; 4 µM in assay [2]; 8 µM in assay [3]; 8 µM in assay [4]; 8 µM in assay [5]; 2 µM in assay [6]. The MIC was at least 64 µM in assay [7]; at least 64 µM in assay [8]; at least 64 µM in assay [9]; 2 µM in [10]; 8 µM in [11].
For the molecule `[C-]#[N+]c1ccc(NC(=O)CCCCCCCC)cc1`, the MIC in [1] was found to be 1 µM; in assay [2], 2 µM; in [3], 8 µM; in assay [4] it was 8 µM; in [5], 8 µM; in [6] it was 0.5 µM. Besides, the MIC in assay [7] is at least 64 µM; in assay [8] it was at least 64 µM; in assay [9], at least 64 µM; in [10], 0.5 µM; in [11], 4 µM.
In the case of `[C-]#[N+]c1ccc(NC(=O)CCc2ccc([N+](=O)[O-])cc2)cc1`, the MIC in [1] is 2 µM; in assay [2], 4 µM; in [3], over 8 µM; in assay [4], over 8 µM; in [5], over 8 µM; in assay [6], 1 µM. Moreover, the minimum inhibitory concentration (MIC) in assay [7] is at least 64 µM; in [8], at least 64 µM; in assay [9] it was at least 64 µM; in assay [10], 2 µM; in assay [11] it was 8 µM.
Regarding `[C-]#[N+]c1ccc(NC(=O)Cc2ccc3c(c2)OCO3)cc1`, the MIC in assay [1] was 1 µM; in assay [2], 4 µM; in assay [3] it was 8 µM; in assay [4], 8 µM; in assay [5], 8 µM; in assay [6] it was 1 µM. Moreover, the MIC in [7] was at least 64 µM; in assay [8] it was at least 64 µM; in [9] it was at least 64 µM; in assay [10], 1 µM; in [11] it was 8 µM.
For `[C-]#[N+]c1ccc(NC(=O)Cc2cccc(C#N)c2)cc1`, the minimum inhibitory concentration (MIC) was 2 µM in [1]; 4 µM in assay [2]; 8 µM in assay [3]; 8 µM in assay [4]; 8 µM in assay [5]; 2 µM in assay [6]. Moreover, the minimum inhibitory concentration (MIC) in [7] is at least 64 µM; in [8], at least 64 µM; in assay [9], at least 64 µM; in assay [10] it was 2 µM; in [11], 8 µM.
Consider `[C-]#[N+]c1ccc(NC(=O)Cc2ccc(OC)cc2)cc1`, for which the MIC in [1] was 2 µM; in assay [2], 4 µM; in assay [3], 8 µM; in [4], 8 µM; in [5] it was 8 µM; in [6], 2 µM. In addition, the MIC in assay [7] is at least 64 µM; in [8], at least 64 µM; in assay [9], at least 64 µM; in assay [10] it was 2 µM; in assay [11] it was 8 µM.
As to `[C-]#[N+]c1ccc(NC(=O)Cc2ccc(Cl)cc2)cc1`, the MIC amounted to 0.5 µM in assay [1]; 2 µM in assay [2]; 8 µM in [3]; 8 µM in [4]; 8 µM in assay [5]; 0.25 µM in [6]. The MIC is at least 64 µM in assay [7]; at least 64 µM in assay [8]; at least 64 µM in assay [9]; 0.25 µM in [10]; 4 µM in assay [11].
Regarding `[C-]#[N+]c1ccc(NC(=O)CCC2CCCC2)cc1`, the MIC was found to be 1 µM in assay [1]; 4 µM in [2]; 8 µM in assay [3]; 8 µM in [4]; 8 µM in assay [5]; 1 µM in assay [6]. Further, the MIC in [7] is at least 64 µM; in [8] it was at least 64 µM; in assay [9] it was at least 64 µM; in assay [10], 2 µM; in assay [11], 8 µM.
